Article PMC12442081, “Combating Fuel Biocontamination: Tailored Antimicrobial Peptides and an Innovative Delivery Strategy” (ACS Applied Bio Materials, 2025)
Where no end group is shown, it is not given here.

Tests used:
[1] = test system: Micrococcus yunnanensis (MY) ATCC 12698; type: cell-based
Description: (§1) All of the bacterial species were grown overnight at 37 °C in LB broth. 10^7 CFU/mL of cells were resuspended in fresh culture and grown until the mid log phase. , The bacterial cells were adjusted to a concentration of 5 × 10^5 CFU/mL to quantify the MIC. Equal volumes of the respective bacterial cultures were incubated with the serially diluted peptides in 96-well microtiter plate and incubated overnight at 37 °C in ambient air. Microorganisms without peptides were treated as the positive control, while uninoculated broth was used as the negative control. The MIC was taken as the lowest peptide concentration at which observable bacteria growth was inhibited, as measured by a microplate reader (Biotek Synergy H1 microplate reader). Experiments were performed in triplicates, and the mean MIC values were determined. A similar study was performed to understand the effect of peptide purity, i.e., ranging from 70 to 95%, on the peptide MIC.

[2] = test system: Sphingomonas paucimobilis (SP); type: cell-based
Description: as §1

[3] = test system: Macrococcus caseolyticus (MC) ATCC 13548; type: cell-based
Description: as §1

[4] = test system: Bacillus licheniformis (BL) ATCC 14580; type: cell-based; conditions: ATCC 14580
Description: as §1

[5] = test system: Pseudomonas aeruginosa (PA) ATCC 39327; type: cell-based; conditions: ATCC 39327
Description: as §1

[6] = test system: Kocuria rosea (KR) ATCC 186; type: cell-based
Description: as §1

[7] = HPLC retention time as a function of peptide hydrophobicity; type: physicochemical; conditions: chromatographic, Polaris 5 C18-A reverse phase, 0.1% TFA water / 0.1% TFA acetonitrile gradient, 30 min, 300 μM peptide
Description: The purity of the peptides was ascertained by high-performance liquid chromatography (HPLC) using Polaris 5 C18-A […] × 4.6 mm reverse phase Zorbax columns from Agilent Technologies. The buffer system contained 0.1% (v/v) TFA in 100% water and 0.1% (v/v) TFA in 100% acetonitrile. Each peptide sample contained 300 μM peptides dissolved in an acetonitrile–water (1:4) mixture. A constant gradient of the two solvent systems was used to generate the chromatogram for 30 min after sample injection.

[8] = test system: microbial clusters MY, KR, DN, MC, BL, RM, SP, PA, HR; assay: Broad-spectrum activity score (in-house scoring matrix); conditions: sum over 9 microbial clusters: (+) = 1, (X) = 0, Fuel x = -1
Description: Table S4. Summarizing the broad-spectrum activity of the peptides, considering the MIC value/ efficacy to control microbial growth upon fuel co-incubation
Peptides Bacterial clusters Fungal
Actinobacteria Firmicutes Proteobacteria Asco- […]
Peptides identified based on the scoring matrix, where (+) =1 (implying peptide activity in fuel environment); (X) = 0 (implying no activity in the desired range, indicated by microbial proliferation); Fuel x = -1(implying no activity in fuel environment).
Clearly, P17 is the best performing peptide in vitro across diverse microbial phyla as well as when incubated in the fuel environment. Based on the activity of the selected peptides, the best

[9] = test system: Hormoconis resinae (HR) ATCC 20267; type: cell-based
Description: as §1
The same experimental procedures that were conducted for the antibacterial assay were used to determine the MIC of the peptides against the fungal strain, H. resinae.

Kocuria rosea (KR) = assay: Effectiveness of peptides on spiked fuel samples (aqueous layer); type: cell-based; design: key: (+) =1 (implying peptide activity in fuel environment); (X) = 0 (implying no activity in the desired range, indicated by microbial proliferation); Fuel x = -1(implying no activity in fuel environment); conditions: initial screening in spiked fuel
Description: (§2) To study the partitioning of microbes in fuel tanks, filter-sterilized fuel was mixed with BH medium in a 1:1 (v/v) ratio. The inoculum was added to the aqueous phase at the bottom to simulate growth in the aqueous layer of fuel tanks and incubated aerobically at 30 °C for 30 days. Visible growth was assessed, and aliquots from both the aqueous and fuel phases were plated on nutrient agar plates to evaluate microbial growth. Peptides were initially added to the aqueous layer of microbially spiked fuel samples for screening the effectiveness in the fuel environment. The study was further extended over a longer duration, and incubated under aerobic conditions at 30 °C for 30 days. Microbial growth was monitored at regular intervals by plating aliquots from the aqueous layer on the nutrient agar plates.
(§3) The engineered peptides were administered at their respective MICs to the aqueous layer of simulated fuel samples, and samples from both the aqueous and solvent (fuel) layers were removed at intervals of 7, 14, 21, and 30 days and plated on LBA plates to assess cell viability (Table S5).

[10] = test system: Sphingomonas paucimobilis (SP); assay: as above; type: cell-based; design: key: (+) =1 (implying peptide activity in fuel environment); (X) = 0 (implying no activity in the desired range, indicated by microbial proliferation); Fuel x = -1(implying no activity in fuel environment); conditions: initial screening in spiked fuel
Description: as §2, §3

[11] = test system: Macrococcus caseolyticus (MC); assay: as above; type: cell-based; design: key: (+) =1 (implying peptide activity in fuel environment); (X) = 0 (implying no activity in the desired range, indicated by microbial proliferation); Fuel x = -1(implying no activity in fuel environment); conditions: initial screening in spiked fuel
Description: as §2, §3

[12] = test system: Micrococcus yunnanensis (MY); assay: as above; type: cell-based; design: key: (+) =1 (implying peptide activity in fuel environment); (X) = 0 (implying no activity in the desired range, indicated by microbial proliferation); Fuel x = -1(implying no activity in fuel environment); conditions: initial screening in spiked fuel
Description: as §2, §3

[13] = test system: Pseudomonas aeruginosa (PA); assay: as above; type: cell-based; design: key: (+) =1 (implying peptide activity in fuel environment); (X) = 0 (implying no activity in the desired range, indicated by microbial proliferation); Fuel x = -1(implying no activity in fuel environment); conditions: initial screening in spiked fuel
Description: as §2, §3

[14] = test system: Bacillus licheniformis (BL); assay: as above; type: cell-based; design: key: (+) =1 (implying peptide activity in fuel environment); (X) = 0 (implying no activity in the desired range, indicated by microbial proliferation); Fuel x = -1(implying no activity in fuel environment); conditions: initial screening in spiked fuel
Description: as §2, §3

Roseomonas mucosa (RM) = assay: as above; type: cell-based; design: key: (+) =1 (implying peptide activity in fuel environment); (X) = 0 (implying no activity in the desired range, indicated by microbial proliferation); Fuel x = -1(implying no activity in fuel environment); conditions: initial screening in spiked fuel
Description: as §2, §3

Hormoconis resinae (HR) = assay: as above; type: cell-based; design: key: (+) =1 (implying peptide activity in fuel environment); (X) = 0 (implying no activity in the desired range, indicated by microbial proliferation); Fuel x = -1(implying no activity in fuel environment); conditions: initial screening in spiked fuel
Description: as §2, §3

[15] = test system: Dermacoccus nishinomiyaensis (DN); assay: as above; type: cell-based; design: key: (+) =1 (implying peptide activity in fuel environment); (X) = 0 (implying no activity in the desired range, indicated by microbial proliferation); Fuel x = -1(implying no activity in fuel environment); conditions: initial screening in spiked fuel
Description: as §2, §3

[16] = test system: Roseomonas mucosa (RM) ATCC BAA-692; type: cell-based
Description: as §1

[17] = test system: Dermacoccus nishinomiyaensis (DN) ATCC 29093; type: cell-based
Description: as §1

Compound: CC[C@H](C)[C@H](N)C(=O)N[C@H](C(=O)N1CCC[C@H]1C(=O)N[C@@H](Cc1c[nH]c2ccccc12)C(=O)N[C@@H](CCCCN)C(=O)N[C@@H](Cc1c[nH]c2ccccc12)C(=O)N1CCC[C@H]1C(=O)N[C@@H](Cc1c[nH]c2ccccc12)C(=O)N[C@@H](Cc1c[nH]c2ccccc12)C(=O)N1CCC[C@H]1C(=O)N[C@@H](Cc1c[nH]c2ccccc12)C(=O)N[C@@H](CCCNC(=N)N)C(=O)N[C@@H](CCCNC(=N)N)C(=O)O)[C@@H](C)CC [P13]
- MIC [1]: 0.9 µM
- MIC [2]: 0.9 µM
- MIC [3]: 3.9 µM
- MIC [4]: 3.9 µM
- MIC [5]: 7.8 µM
- MIC [6]: 3.9 µM
- R t, retention time of peptide on HPLC column as a function of peptide hydrophobicity [7]: 12.084 min
- Score [8]: 2
- MIC [9]: 7.8 µM
- activity considering MIC value/efficacy upon fuel co-incubation (Kocuria rosea (KR)): Fuel x
- activity considering MIC value/efficacy upon fuel co-incubation [10]: +
- activity considering MIC value/efficacy upon fuel co-incubation [11]: +
- activity considering MIC value/efficacy upon fuel co-incubation [12]: +
- activity considering MIC value/efficacy upon fuel co-incubation [13]: X
- activity considering MIC value/efficacy upon fuel co-incubation [14]: +
- activity considering MIC value/efficacy upon fuel co-incubation (Roseomonas mucosa (RM)): X
- activity considering MIC value/efficacy upon fuel co-incubation (Hormoconis resinae (HR)): Fuel x
- activity considering MIC value/efficacy upon fuel co-incubation [15]: X

Compound: ILPWKWPFWPWRR [P7]
- MIC [1]: 0.9 µM
- MIC [2]: 0.9 µM
- MIC [16]: 0.9 µM
- MIC [4]: 0.9 µM
- MIC [5]: 31.25 µM
- R t, retention time of peptide on HPLC column as a function of peptide hydrophobicity [7]: 12.156 min
- Score [8]: 3
- MIC [9]: 1.95 µM
- activity considering MIC value/efficacy upon fuel co-incubation (Kocuria rosea (KR)): X
- activity considering MIC value/efficacy upon fuel co-incubation [10]: +
- activity considering MIC value/efficacy upon fuel co-incubation [11]: X
- activity considering MIC value/efficacy upon fuel co-incubation [12]: +
- activity considering MIC value/efficacy upon fuel co-incubation [13]: X
- activity considering MIC value/efficacy upon fuel co-incubation [14]: +
- activity considering MIC value/efficacy upon fuel co-incubation (Roseomonas mucosa (RM)): +
- activity considering MIC value/efficacy upon fuel co-incubation (Hormoconis resinae (HR)): Fuel x
- activity considering MIC value/efficacy upon fuel co-incubation [15]: X

Compound: ILPWKWPWFPWRR [P6]
- MIC [1]: 0.9 µM
- MIC [2]: 15.625 µM
- MIC [4]: 0.9 µM
- MIC [5]: 7.8 µM
- MIC [6]: 0.9 µM
- MIC [17]: 0.9 µM
- R t, retention time of peptide on HPLC column as a function of peptide hydrophobicity [7]: 12.299 min
- Score [8]: -3
- MIC [9]: 0.9 µM
- activity considering MIC value/efficacy upon fuel co-incubation (Kocuria rosea (KR)): Fuel x
- activity considering MIC value/efficacy upon fuel co-incubation [10]: X
- activity considering MIC value/efficacy upon fuel co-incubation [11]: X
- activity considering MIC value/efficacy upon fuel co-incubation [12]: +
- activity considering MIC value/efficacy upon fuel co-incubation [13]: X
- activity considering MIC value/efficacy upon fuel co-incubation [14]: Fuel x
- activity considering MIC value/efficacy upon fuel co-incubation (Roseomonas mucosa (RM)): X
- activity considering MIC value/efficacy upon fuel co-incubation (Hormoconis resinae (HR)): Fuel x
- activity considering MIC value/efficacy upon fuel co-incubation [15]: Fuel x

Compound: ILPWKWPWWPWRK [P2]
- MIC [2]: 0.9 µM
- MIC [16]: 0.9 µM
- MIC [3]: 1.9 µM
- MIC [4]: 0.9 µM
- MIC [6]: 0.9 µM
- MIC [17]: 0.9 µM
- R t, retention time of peptide on HPLC column as a function of peptide hydrophobicity [7]: 12.624 min
- Score [8]: 2
- activity considering MIC value/efficacy upon fuel co-incubation (Kocuria rosea (KR)): +
- activity considering MIC value/efficacy upon fuel co-incubation [10]: +
- activity considering MIC value/efficacy upon fuel co-incubation [11]: +
- activity considering MIC value/efficacy upon fuel co-incubation [12]: X
- activity considering MIC value/efficacy upon fuel co-incubation [13]: X
- activity considering MIC value/efficacy upon fuel co-incubation [14]: +
- activity considering MIC value/efficacy upon fuel co-incubation (Roseomonas mucosa (RM)): Fuel x
- activity considering MIC value/efficacy upon fuel co-incubation (Hormoconis resinae (HR)): X
- activity considering MIC value/efficacy upon fuel co-incubation [15]: Fuel x

Compound: ILPWKWPWWVWRR [P5]
- MIC [1]: 0.9 µM
- MIC [2]: 0.9 µM
- MIC [4]: 0.9 µM
- MIC [5]: 31.25 µM
- MIC [6]: 0.9 µM
- MIC [17]: 0.9 µM
- R t, retention time of peptide on HPLC column as a function of peptide hydrophobicity [7]: 12.045 min
- Score [8]: 3
- MIC [9]: 62.5 µM
- activity considering MIC value/efficacy upon fuel co-incubation (Kocuria rosea (KR)): Fuel x
- activity considering MIC value/efficacy upon fuel co-incubation [10]: +
- activity considering MIC value/efficacy upon fuel co-incubation [11]: X
- activity considering MIC value/efficacy upon fuel co-incubation [12]: +
- activity considering MIC value/efficacy upon fuel co-incubation [13]: X
- activity considering MIC value/efficacy upon fuel co-incubation [14]: +
- activity considering MIC value/efficacy upon fuel co-incubation (Roseomonas mucosa (RM)): X
- activity considering MIC value/efficacy upon fuel co-incubation (Hormoconis resinae (HR)): X
- activity considering MIC value/efficacy upon fuel co-incubation [15]: +

Compound: ILPWKWVWWPWRR [P8]
- MIC [1]: 0.9 µM
- MIC [2]: 3.91 µM
- MIC [4]: 1.9 µM
- MIC [5]: 15.625 µM
- MIC [17]: 0.9 µM
- R t, retention time of peptide on HPLC column as a function of peptide hydrophobicity [7]: 12.168 min
- Score [8]: 2
- MIC [9]: 31.25 µM
- activity considering MIC value/efficacy upon fuel co-incubation (Kocuria rosea (KR)): X
- activity considering MIC value/efficacy upon fuel co-incubation [10]: +
- activity considering MIC value/efficacy upon fuel co-incubation [11]: X
- activity considering MIC value/efficacy upon fuel co-incubation [12]: +
- activity considering MIC value/efficacy upon fuel co-incubation [13]: X
- activity considering MIC value/efficacy upon fuel co-incubation [14]: +
- activity considering MIC value/efficacy upon fuel co-incubation (Roseomonas mucosa (RM)): X
- activity considering MIC value/efficacy upon fuel co-incubation (Hormoconis resinae (HR)): X
- activity considering MIC value/efficacy upon fuel co-incubation [15]: Fuel x
